Reference: patent US20240409536A1, “COMPOUNDS AND METHODS FOR MODULATING SPLICING” (REMIX THERAPEUTICS INC., priority 2021, published 2024)

What was measured:
HTT mRNA = experiment: Gene panel canonical junction qPCR assay, HTT CJ mRNA decrease; format: cell-based, human; settings: Homo sapiens, canonical junction qPCR, read-out: HTT IC50 (decrease in CJ mRNA levels)
Summary of the method: (§1)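 A673 or K562 cells were treated with compound, and lysates underwent cDNA synthesis and qPCR with a CY5 5′-nuclease probe or primer spanning the canonical exon junction. ΔCt versus GAPDH, GUSB or PPIA was normalized to DMSO (2^(−ΔΔCt)), converted to percentage response and fitted four-parameter logistic for IC50.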

Target C = experiment: HiBiT protein abundance assay, Target C (K562 HiBiT knock-in cells); format: cell-based, human; settings: 24 hours
Summary of the method: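 Protein abundance read by HiBiT lytic luminescence after 24 h compound exposure (37 °C) of knock-in K562 cells, 10000 cells/well in IMDM+1% FBS. Dosing: 10 points, 3-fold, top 10 μM final, ≤0.25% DMSO. Four-parameter logistic fit gave concentration reducing abundance to 50% of untreated control.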

Target C mRNA = experiment: Gene panel canonical junction qPCR assay, Target C CJ mRNA decrease; format: cell-based; settings: Homo sapiens, canonical junction qPCR, read-out: Target C IC50 (decrease in CJ mRNA levels)
Summary of the method: as §1

HiBiT-tagged MYB protein = experiment: HiBiT protein abundance assay, MYB (K562 HiBiT knock-in cells); format: cell-based, human; settings: 24 hours
Summary of the method: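 Luminescent readout of HiBiT-tagged endogenous protein after lysis, following 24 h compound exposure of knock-in K562 lines at 37 °C. Ten 3-fold concentrations from 10 μM final, DMSO ≤0.25%. Four-parameter logistic fit of normalized response gives concentration halving abundance (IC50).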

| IC50 (HTT mRNA) [µM] | IC50 (Target C) [µM] | IC50 (Target C mRNA) [µM] | IC50 (HiBiT-tagged MYB protein) [µM] | Compound |
| --- | --- | --- | --- | --- |
| 1 to 10 | 1 to 10 | > 10 | < 0.1 | CNC1CCN(c2ccc(C(=O)Nc3cc(F)c4nc(C)cn4c3)c3nnccc23)C1 (stereo not shown) [Compound 231, N-{8-fluoro-2-methylimidazo[1,2-a]pyridin-6-yl}-5-[3-(methylamino)pyrrolidin-1-yl] cinnoline-8-carboxamide] |
| 1 to 10 | 1 to 10 | 1 to 10 | < 0.1 | COCCOc1ccc2c(N3C[C@@H](C)N[C@@H](C)C3)ccc(C(=O)Nc3cc(F)c4nc(C)cn4c3)c2n1 [Compound 232, 5-[(3R,5S)-3,5-dimethylpiperazin-1-yl]-N-{8-fluoro-2-methylimidazo[1,2-a]pyridin-6-yl}-2-(2-methoxyethoxy)quinoline-8-carboxamide] |
| 1 to 10 | > 10 | > 10 | > 10 | Cc1cn2cc(NCc3ccc(N4CCNCC4)c4ccnnc34)cc(F)c2n1 [Compound 230, 8-fluoro-2-methyl-N-{[5-(piperazin-1-yl)cinnolin-8-yl]methyl}imidazo[1,2-a]pyridin-6-amine] |
| 0.1 to 1 | 0.1 to 1 | 0.1 to 1 | < 0.1 | CCNC1CCN(c2ccc(C(=O)Nc3cc(F)c4nc(C)cn4c3)c3nc(C)ccc23)CC1 [Compound 228, 5-[4-(ethylamino)piperidin-1-yl]-N-{8-fluoro-2-methylimidazo[1,2-a]pyridin-6-yl}-2-methylquinoline-8-carboxamide] |
|  | 0.1 to 1 | 0.1 to 1 | < 0.1 | Cc1cnc2c(C(=O)Nc3cc(F)c4nc(C)cn4c3)ccc(N3C[C@@H](C)N[C@@H](C)C3)c2n1 [Compound 217, 8-((3R,5S)-3,5-dimethylpiperazin-1-yl)-N-{8-fluoro-2-methylimidazo[1,2-a]pyridin-6-yl}-2-methylquinoxaline-5-carboxamide] |
| 1 to 10 | 1 to 10 | 1 to 10 | < 0.1 | CCNC1CCN(c2ccc(C(=O)Nc3cc(F)c4nc(C)cn4c3)c3nc(OCCOC)ccc23)CC1 [Compound 233, 5-[4-(ethylamino)piperidin-1-yl]-N-{8-fluoro-2-methylimidazo[1,2-a]pyridin-6-yl}-2-(2-methoxyethoxy)quinoline-8-carboxamide] |
| > 10 | 0.1 to 1 | > 10 | 0.1 to 1 | CNC1CCN(c2ccc(C(=O)Nc3cc(F)c4nc(C)cn4c3)c3ncc(OC)nc23)C1 (stereo in doubt) [Compound 227, (R)—N-(8-fluoro-2-methylimidazo[1,2-a]pyridin-6-yl)-2-methoxy-8-(3-(methylamino)pyrrolidin-1-yl)quinoxaline-5-carboxamide 2,2,2-trifluoroacetate] |
| 1 to 10 | 1 to 10 |  | 1 to 10 | Cc1cn2cc(NC(=O)c3ccc(N4CCC(NC(C)(C)C)C4)c4ccnnc34)cc(F)c2n1 (stereo not shown) [Compound 109] |
| > 10 | > 10 | > 10 | < 0.1 | COCCOc1ccc2c(N3CCC(N(C)C)CC3)ccc(C(=O)Nc3cc(F)c4nc(C)cn4c3)c2n1 [Compound 229, 5-[4-(dimethylamino)piperidin-1-yl]-N-{8-fluoro-2-methylimidazo[1,2-a]pyridin-6-yl}-2-(2-methoxyethoxy)quinoline-8-carboxamide] |
